What all share (type): cell-based
Test [1] concerns mucoid strain of Pseudomonas aeruginosa. Kind of test: in vitro contact-time test on a mucoid strain of Pseudomonas aeruginosa. As to the method: (§1) The solution from the example was tested in vitro on a mucoid strain of Pseudomonas aeruginosa, Burkholderia cepacia and Methicillin Resistant Staphylococcus Aureus.
Test [2] relates to Burkholderia cepacia. Kind of test: in vitro contact-time test on Burkholderia cepacia. Here is the method:
as §1
Burkholderia cenocepacia J2315 (ATCC BAA 245 known to be resistant to Tobramycin and Colistin (Holden 2009, Soiza 2004)), derived from patients with cystic fibrosis.

Test [3] has as its system Methicillin Resistant Staphylococcus aureus (MRSA). Kind of test: in vitro contact-time test on MRSA. Here is the method:
as §1
Methicillin Resistant Staphylococcus aureus (MRSA)

Take `N#CSO` [500 μM OSCN, hypothiocyanite]: the bacterial count in test [1] (contact time 0 hours) was found to be 4.14 log CFU/ml; in test [1] (contact time 0.5 hours), 3.23 log CFU/ml; in test [1] (contact time 1 hour) it was 3.16 log CFU/ml; in test [1] (contact time 2 hours), 2.98 log CFU/ml; in test [1] (contact time 4 hours), 2.08 log CFU/ml; in test [1] (contact time 6 hours), 1.90 log CFU/ml. The bacterial count came out at 1.78 log CFU/ml in test [1] (contact time 24 hours); 4.41 log CFU/ml in test [2] (contact time 0 hours); 3.64 log CFU/ml in test [2] (contact time 0.5 hours); 3.56 log CFU/ml in test [2] (contact time 1 hour); 3.03 log CFU/ml in test [2] (contact time 2 hours); 2.08 log CFU/ml in test [2] (contact time 4 hours). Moreover, the bacterial count in test [2] (contact time 6 hours) was found to be 1.98 log CFU/ml; in test [2] (contact time 24 hours) it was 1.78 log CFU/ml; in test [3] (contact time 0 hours), 4.15 log CFU/ml; in test [3] (contact time 0.5 hours), 3.80 log CFU/ml; in test [3] (contact time 1 hour), 3.70 log CFU/ml; in test [3] (contact time 2 hours) it was 3.33 log CFU/ml. Besides, the bacterial count in test [3] (contact time 4 hours) is on record as 2.89 log CFU/ml; in test [3] (contact time 6 hours), 2.25 log CFU/ml; in test [3] (contact time 24 hours), 1.97 log CFU/ml.

The values above are taken from patent publication US9078859B2, “Use of a synergistic combination of hypothiocyanite and/or hypohalite ions and lactoferrin for preparing a treatment for cystic fibrosis” (ALAXIA, priority 2009, dated 2015).
